Test results reported in US20170107212A1, “NOVEL COMPOUNDS” (Bayer Pharma Aktiengesellschaft, priority 2014, published 2017).
Structures can show the parent of a compound that is named as a salt.

Tests used:
Frizzled1 = conditions: according to WO 2011/035321 (A1); cited from earlier work
[1] = test system: Wnt3A-stimulated R-catenin stabilization; conditions: according to WO 2011/035321 (A1); cited from earlier work
[2] = test system: LEF/TCF reporter activity; conditions: Wnt3A-stimulated; according to WO 2011/035321 (A1); cited from earlier work
Dishevelled-2 protein = conditions: according to WO 2011/035321 (A1); cited from earlier work
HCT116 FOPFlash = assay: Control reporter assay, HCT116 FOP control vector (non-functional TCF elements), luciferase expression; format: cell-based; conditions: Homo sapiens, HCT116 FOP control reporter cells, 36 hours incubation, dilution series 50 μM to 15 nM
How it was run: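 Stable HCT116 cells carrying FOP vector (randomized non-functional TCF sites) plus pcDNA3, run in parallel with TOP line; compounds 50 μM to 15 nM (3.16-fold steps) added in CAFTY buffer pH 7.4 with 2 mM Ca2+, 0.01% BSA. Incubated 36 h at 37 °C, 5% CO2; luciferase luminescence read.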

[3] = test system: constitutive active colorectal cancer cell (CRC) Wnt pathway, HCT116 TOPFlash; assay: Cellular reporter assay, HCT116 Super TopFlash (constitutive active Wnt pathway), luciferase expression; format: cell-based; conditions: HCT116 Super TopFlash reporter cells, 36 hours incubation, dilution series 50 μM to 15 nM
How it was run: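 HCT116 cells stably carrying Super TopFlash (β-catenin ΔS45, constitutive Wnt) run in parallel with FOP control line; compounds 50 μM to 15 nM (3.16-fold) in CAFTY buffer pH 7.4 with 2 mM Ca2+, 0.01% BSA, 36 h at 37 °C. Luciferase luminescence read as Wnt activity.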

IC50 (HCT116 FOPFlash; HCT-116, 36 h) | IC50 ([3]; Homo sapiens, HCT-116, 36 h) | SMILES | also measured
– | – | O=C(Nc1ccc([N+](=O)[O-])cc1Cl)c1cc(Cl)ccc1O [niclosamide] | Frizzled1 internalization (endocytosis) (Frizzled1): promotes Frizzled1 internalization (endocytosis); Wnt3A-stimulated R-catenin stabilization [1]: inhibits; LEF/TCF reporter activity [2]: inhibits; Dishevelled-2 protein regulation (Dishevelled-2 protein): down regulates Dishevelled-2 protein
≥ 50 µM | 0.079 µM | CN1CCN(CC(=O)Nc2cc(C(=O)Nc3cnc(-c4cccnc4F)cn3)ccc2OC(F)(F)F)CC1 [Example 51] | –
≥ 50 µM | 26.1 µM | COCCCOc1ccc(C(=O)Nc2nnc(-c3cnccc3C)s2)cc1NC(=O)CN1CCN(C)CC1 [Example 114, 4-(3-methoxypropoxy)-3-{[(4-methylpiperazin-1-yl)acetyl)amino}-N-[5-(4-methylpyridin-3-yl)-1,3,4-thiadiazol-2-yl]benzamide] | –
≥ 50 µM | 0.0355 µM | CN1CCN(CC(=O)Nc2cc(C(=O)Nc3cnc(-c4ccc(N)nc4)cn3)ccc2OC(F)(F)F)CC1 [Example 54, N-[5-(6-aminopyridin-3-yl)pyrazin-2-yl]-3-{[(4-methylpiperazin-1-yl)acetyl]amino}-4-(trifluoromethoxy)benzamide] | –
≥ 50 µM | 0.33 µM | CN1CCN(CC(=O)Nc2cc(C(=O)Nc3nnc(-c4cncnc4)s3)ccc2OC2CC2)CC1 [Example 112, 4-(cyclopropyloxy)-3-{[(4-methylpiperazin-1-yl)acetyl]amino}-N-[5-(pyrimidin-5-yl)-1,3,4-thiadiazol-2-yl]benzamide] | –
≥ 50 µM | 0.115 µM | COc1ncc(-c2ccc(NC(=O)c3ccc(OC(F)(F)F)c(NC(=O)C(C)N4CCOCC4)c3)cn2)cn1 (stereo not shown) [Example 7, N-[6-(2-methoxypyrimidin-5-yl)pyridin-3-yl]-3-{[2-(morpholin-4-yl)propanoyl]amino}-4-(trifluoromethoxy)benzamide] | –
≥ 50 µM | 33 µM | O=C(CN1CCOCC1)Nc1cc(C(=O)Nc2nnc(-c3cnccc3C(F)(F)F)s2)ccc1OC(F)(F)F [Example 110, 3-[(morpholin-4-ylacetyl)amino)-4-(trifluoromethoxy)-N-{5-[4 (trifluoromethyl)pyridin-3-yl)-1,3,4-thiadiazol-2-yl}benzamide] | –
– | – | Cc1nccnc1-c1nnc(NC(=O)c2ccc(OC(F)(F)F)c(NC(=O)CN3CCN(C)CC3)c2)s1 [Example 41, 1-methyl-4-(2-{[5-{[5-(3-methylpyrazin-2-yl)-1,3,4-thiadiazol-2-yl]carbamoyl}-2-(trifluoromethoxy)phenyl]amino}-2-oxoethyl)piperazin-1-ium hexafluorophosphate] | IC50 (HCT116 FOPFlash; HCT-116): ≥ 50 µM; IC50 ([3]; Homo sapiens, HCT-116): 0.86 µM
≥ 50 µM | 4.66 µM | Cc1ccncc1-c1nnc(NC(=O)c2ccc(OC(F)(F)F)c(NC(=O)CN3CCOCC3)c2)s1 [Example 71, N-[5-(4-methylpyridin-3-yl)-1,3,4-thiadiazol-2-yl]-3-[(morpholin-4-ylacetyl)amino]-4-(trifluoromethoxy)benzamide] | –
≥ 50 µM | 0.585 µM | O=C(CN1CCOCC1)Nc1cc(C(=O)Nc2nnc(-c3cncc(Cl)c3)s2)ccc1OC(F)(F)F [Example 47, N-[5-(5-chloropyridin-3-yl)-1,3,4-thiadiazol-2-yl]-3-[(morpholin-4-ylacetyl)amino]-4-(trifluoromethoxy)benzamide] | –
≥ 50 µM | 2.7 µM | Cc1ncccc1-c1nnc(NC(=O)c2ccc(OC(F)(F)F)c(NC(=O)CN3CCN(C)CC3)c2)s1 [Example 27, 3-{[(4-methylpiperazin-1-yl)acetyl]amino}-N-[5-(2-methylpyridin-3-yl)-1,3,4-thiadiazol-2-yl]-4-(trifluoromethoxy)benzamide] | –
≥ 50 µM | – | Cc1ccncc1-c1nnc(NC(=O)c2ccc(OC(F)(F)F)c(NC(=O)CN3CCN(C)CC3)c2)s1 [Example 36, 3-{[(4-methylpiperazin-1-yl)acetyl]amino}-N-[5-(4-methylpyridin-3-yl)-1,3,4-thiadiazol-2-yl]-4-(trifluoromethoxy)benzamide hydrochloride (1:1)] | IC50 [3]: 0.06 µM
≥ 50 µM | ≥ 50 µM | Cc1ccncc1-c1nnc(NC(=O)c2ccc(OCC3COC3)c(NC(=O)CN3CCN(C)CC3)c2)s1 [Example 115, 3-{[(4-methylpiperazin-1-yl)acetyl]amino}-N-[5-(4-methylpyridin-3-yl)-1,3,4-thiadiazol-2-yl]-4-(oxetan-3-ylmethoxy)benzamide] | –
≥ 50 µM | 0.535 µM | O=C(Nc1nnc(-c2cncnc2)s1)c1ccc(OC(F)(F)F)c(NC(=O)C2(N3CCOCC3)CC2)c1 [Example 30, 3-({[1-(morpholin-4-yl)cyclopropyl]carbonyl}amino)-N-[5-(pyrimidin-5-yl)-1,3,4-thiadiazol-2-yl]-4-(trifluoromethoxy)benzamide] | –
20.5 µM | 0.293 µM | CN1CCN(CC(=O)Nc2cc(C(=O)Nc3nnc(-c4cccnc4)s3)ccc2OCC(F)(F)F)CC1 [Example 50, 3-{[(4-methylpiperazin-1-yl)acetyl]amino}-N-[5-(pyridin-3-yl)-1,3,4-thiadiazol-2-yl]-4-(2,2,2-trifluoroethoxy)benzamide hydrochloride (1:1)] | –
22.5 µM | 0.514 µM | CN1CCN(CC(=O)Nc2cc(C(=O)Nc3nnc(-c4ccccn4)s3)ccc2OC(F)(F)F)CC1 [Example 9, 3-{[(4-methylpiperazin-1-yl)acetyl]amino}-N-[5-(pyridin-2-yl)-1,3,4-thiadiazol-2-yl]-4-(trifluoromethoxy)benzamide hydrochloride] | –
≥ 50 µM | 0.973 µM | CN1CCN(CC(=O)Nc2cc(C(=O)Nc3nnc(-c4cnc(N)nc4)s3)ccc2OC(F)(F)F)CC1 [Example 31, N-[5-(2-aminopyrimidin-5-yl)-1,3,4-thiadiazol-2-yl]-3-{[(4-methylpiperazin-1-yl)acetyl]amino}-4-(trifluoromethoxy)benzamide] | –
≥ 50 µM | ≥ 50 µM | Cc1scnc1-c1nnc(NC(=O)c2ccc(OC(F)(F)F)c(NC(=O)CN3CCOCC3)c2)s1 [Example 105, N-[5-(5-methyl-1,3-thiazol-4-yl)-1,3,4-thiadiazol-2-yl)-3-[(morpholin-4-ylacetyl)amino]-4-(trifluoromethoxy)benzamide] | –
≥ 50 µM | ≥ 50 µM | O=C(CN1CCOCC1)Nc1cc(C(=O)Nc2nnc(-c3cnccn3)s2)ccc1OC(F)(F)F [Example 88, 3-[(morpholin-4-ylacetyl)amino]-N-[5-(pyrazin-2-yl)-1,3,4-thiadiazol-2-yl]-4-(trifluoromethoxy)benzamide] | –
≥ 50 µM | ≥ 50 µM | O=C(CN1CCOCC1)Nc1cc(C(=O)Nc2nnc(-c3cnccc3F)s2)ccc1OC(F)(F)F [Example 107, N-[5-(4-fluoropyridin-3-yl)-1,3,4-thiadiazol-2-yl]-3-[(morpholin-4-ylacetyl)amino]-4-(trifluoromethoxy)benzamide] | –
≥ 50 µM | 0.103 µM | O=C(CN1CCOCC1)Nc1cc(C(=O)Nc2ccc(-c3cccnc3F)cn2)ccc1OC(F)(F)F [Example 16, N-(2′-fluoro-3,3′-bipyridin-6-yl)-3-[(morpholin-4-ylacetyl)amino]-4-(trifluoromethoxy)benzamide] | –
≥ 50 µM | ≥ 50 µM | O=C(CN1CCOCC1)Nc1cc(C(=O)Nc2nnc(-c3ncccc3F)s2)ccc1OC(F)(F)F [Example 96, N-[5-(3-fluoropyridin-2-yl)-1,3,4-thiadiazol-2-yl]-3-[(morpholin-4-ylacetyl)amino]-4-(trifluoromethoxy}benzamide] | –
